Assay results taken from US5055485A, “Inactivation of viruses in cell- and protein-containing compositions using aryl diol epoxides” (New York Blood Center, Inc., priority 1988, dated 1991).
≈ marks a conversion by molar mass, not a printed value. Read-outs that look alike come from different tables or passages of the source.

Legend:
[1] = system: Vesicular stomatitis virus (VSV); assay type: cell-based
VSV [2] = assay type: cell-based, vesicular stomatitis virus
VSV [3] = experiment: microbe, parasite or virus in culture; assay type: cell-based; settings: Vesicular stomatitis virus, A549, read-out: virus kill (cell-associated VSV)
VSV [4] = experiment: microbe, parasite or virus in culture; assay type: cell-based, vesicular stomatitis virus; settings: for log reduction at 10 µM: Vesicular stomatitis virus, 6 h
Anti-HBsAg = experiment: Plasma protein functional activity: Anti-HBsAg titer; assay type: biochemical; settings: human plasma, 10 μm, 6 hours, 24° C.
Fibrinogen = experiment: Plasma protein functional activity: fibrinogen clottability; assay type: biochemical; settings: human plasma, 10 μm, 6 hours, 24° C.
AHF = experiment: Plasma protein functional activity: AHF; assay type: biochemical; settings: human plasma, 10 μm, 6 hours, 24° C.
Factor IX = experiment: Plasma protein functional activity: Factor IX; assay type: biochemical; settings: human plasma, 10 μm, 6 hours, 24° C.
Haptoglobin = experiment: Plasma protein: haptoglobin; assay type: biochemical; settings: human plasma, 10 μm, 6 hours, 24° C.
selected plasma proteins = experiment: Functional activity of selected plasma proteins, overall; assay type: biochemical; settings: human plasma, 10 μm, 6 hours, 24° C.
[5] = Solubility in aqueous media / water; assay type: physicochemical
[6] = Hydrolysis in aqueous medium; assay type: physicochemical; settings: iscove's medium 10% fbs; Iscove's medium containing 10% fetal bovine serum
[7] = system: washed human red blood cells; experiment: Red cell structural and functional integrity; settings: conditions of Example 2
factor VIII = settings: background art; cited from earlier work
[8] = system: proteinaceous components of the plasma; settings: background art; cited from earlier work
[9] = background art; cited from earlier work
DNA = settings: background art; cited from earlier work
viruses = settings: background art; cited from earlier work

O[C@H]1[C@H]2O[C@H]2c2c(cc3ccc4cccc5ccc2c3c45)[C@@H]1O (relative stereo) [BAPDE, trans-7,8-dihydroxy [anti] 9,10 epoxy-7,8,9,10-tetrahydro benzo[a]pyrene]
virus inactivated [1]: > 5 logs | VSV inactivation in the presence of red cells (in words) (VSV [2]): reduced in the presence of red cells | virus titer reduction (VSV [2]): at least 3 logs | log reduction at 3 µM (VSV [3]): > 5.5 | VSV Infectivity following treatment with BAPDE (VSV [4]): < -0.5 | log reduction at 10 µM (VSV [4]; read-out: virus inactivation): > 4.5 | log reduction at 10 µM (VSV [4]; read-out: VSV Infectivity change: log10 Kill): > 4.6 | Anti-HBsAg Recovery (%) (Anti-HBsAg): 110% | Anti-HBsAg following treatment with BAPDE (Anti-HBsAg; no treatment 0.50): 0.55 titer | Fibrinogen clottability Recovery (%) (Fibrinogen): 100% | Fibrinogen clottability following treatment with BAPDE (Fibrinogen; no treatment clottable): clottable | AHF Recovery (%) (AHF): 79% | AHF following treatment with BAPDE (AHF; no treatment 0.70): 0.55 units/ml | Factor IX Recovery (%) (Factor IX): 100% | Factor IX following treatment with BAPDE (Factor IX; no treatment 0.9): 0.9 units/ml | Haptoglobin Recovery (%) (Haptoglobin): 97% | Haptoglobin following treatment with BAPDE (Haptoglobin; no treatment 175): 170 mg/dL | loss of protein functional activity (in words) (selected plasma proteins): without significant loss of protein functional activity | solubility [5]: 1 to 10 µM (≈ 0.302 to 3.02 µg/mL) | half-life [6]: ~30 min | toxicity to A549 cells (A549 cells): Neither BAPDE nor the solvent in which it was dissolved (e.g., tetrahydroturan) were toxic to A549 cells | 2,3 diphosphoglycerate levels [7]: within the normal range | ATP levels [7]: within the normal range | Red cell structural and functional integrity [7]: not compromised | hemoglobin content [7]: within the normal range | osmotic fragility [7]: within the normal range

O=C1CCO1 [Beta-propiolactone, beta-propiolactone]
loss of factor VIII content of plasma (factor VIII): more than half of the factor VIII content of plasma is lost | denaturation of plasma proteins [8]: substantially denaturate valuable plasma proteins

CN(C)c1ccc2cc3ccc(N(C)C)cc3nc2c1 [acridine orange]
water solubility (in words) [9]: water soluble | binding to DNA (DNA): bind extremely well to DNA

C=O [formaldehyde]
denaturation of plasma proteins [8]: denatured the valuable proteinaceous components of the plasma

O=CCCCC=O [glutaraldehyde]
denaturation of plasma proteins [8]: denatured the valuable proteinaceous components of the plasma | viral inactivation and effect on cells (in words) (viruses): inactivates viral infectivity, but fixes cells

Nc1ccc2cc3ccc(N)cc3nc2c1 [proflavin]
water solubility (in words) [9]: water soluble | binding to DNA (DNA): bind extremely well to DNA

OCl [sodium hypochlorite]
denaturation of plasma proteins [8]: denatured the valuable proteinaceous components of the plasma
